# In US5229364A, “Polypeptides derived from the human immunodeficiency virus endonuclease protein” (priority 1991, dated 1993):
# Tests used:
# [1] = system: HIV-1 antibody positive sera; assay: Peptide ELISA with HIV-1 antibody positive sera; format: binding, human; conditions: 33 HIV-1 antibody positive sera diluted 1/100; peptide 1 μg/well; absorbance 490 nm; positive = above mean of negative sera plus three S.D.
# Procedure: FIG. 1 illustrates the reactivity of sera from HIV-1 infected and non-infected individuals to selected HIV-1 endonuclease peptides. Thirty-three HIV-1 antibody positive sera (filled symbols) and fourteen control sera (open symbols) were analyzed in ELISA with peptides representing the HIV-1 endonuclease protein (6). Amino acid sequences were derived from the HIV-1 consensus sequence and are shown at the bottom of the picture (abscissa). Uppercase letters indicate consensus amino acids, whereas less conserved amino acids are indicated with lowercase letters. Absorbance values at 490 nm are indicated in the ordinate. Three of the sera belonged to infected individuals classified as CDC 1 (7), thirteen to CDCII, seven to CDC III and ten to CDC IV. Becaused reactivity to other regions than the one represented by End 10 was very low, only results of a selected number of peptides is shown in the figure. FIG. 2 illustrates the reactivity of HIV-1 antobidy positive and control sera to an End 10 set of 18 glycine (G) substitution peptides. Filled symbols show mean optical density for 13 antibody positive sera. The corresponding values for four negative sera are shown by open symbols. Vertical bars represent standard deviation values. The mean reactivity to intact peptide End 10 was chosen to represent 100% of activity and reactivity to the substituted peptides is expressed in relation to this. […]
# [2] = system: sera obtained from HIV-2 infected individuals; assay: Peptide ELISA with sera from HIV-2 infected individuals; format: binding, human; conditions: data not shown
# Procedure: The peptide ELISA was performed as follows. Microtiter plate wells (Linbro, Flow, Scotland) were coated with peptide (1 μg/well) resuspended in 0.01 M carbonate buffer at room temperature overnight. Thereafter, the plates wells were blocked with 5% bovine serum albumin. 100 μl of reagents were used per well. Five washings (0.9% NaCl and 0.005% Tween 20 in distilled water) were performed between the different steps of the ELISA procedure. Positive sera and controls were diluted 1/100 and incubated in the plates for one hour at 37° C. Peroxidase conjugated immunoglobulins to human IgG y-chains (Dakopatts; Denmark) diluted 1/2000 were added (1 hour, 37° C.). 1,2 phenylene diaminedihydrochloride was used as substrate. The reaction was allowed to continue for ten minutes and then stopped with 3 M H2 SO4. […] The mean optic density plus three times S.D. for peptide End 10 was 0.8.
# The corresponding region in the genome of HIV-2 (Table 1) and simian immunodeficiency virus (SIV) is also very conserved. […] Some amino-acid stretches are, however, completely conserved among the different serotypes. Because of this observation, the HIV-1 peptide End 10 was also tested with 30 sera obtained from HIV-2 infected individuals.
sequence,measurement,setting,value
"ETGQETAYFLLKLAGRWPVK [End 10, 20-residue peptide of HIV-1 endonuclease, starting at position 655 of the pol consensus]",reactivity in ELISA with HIV-1 antibody positive sera,[1],reacted strongly
same,intensity of the reactions with HIV-2 sera relative to HIV-1 sera,[2]; 30 HIV-2 sera,comparable
same,reactivity in ELISA with HIV-2 sera,[2]; 30 sera from HIV-2 infected individuals,reacted strongly
